Data from the supplement of paper PMC10307832.

Legend:
Experiment in all cases: relative viability (nuclei count vs DMSO), 5 days (fraction); higher = more cells survive
ABC-1 = tested on: ABC-1
Outline: (§1)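 Medians of duplicate plates are given as relative viability. That measure is the nuclei count in treated wells divided by the count in vehicle wells. Counts were taken on 4× images of lung cancer cell lines in 1536-well plates, 5 days after pin-tool dosing the day after seeding with one drug alone or a fixed anchor-drug dose plus five library-drug doses (not always all listed) in √10 steps.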

CAL-12T = tested on: CAL-12T
Outline: as §1

COR-L 105 = tested on: COR-L 105
Outline: as §1

ChaGo-K-1 = tested on: ChaGo-K-1
Outline: as §1

EMC-BAC-2 = tested on: EMC-BAC-2
Outline: as §1

EPLC-272H = tested on: EPLC-272H
Outline: as §1

HCC-15 = tested on: HCC-15
Outline: as §1

HCC-78 = tested on: HCC-78
Outline: as §1

HOP-62 = tested on: HOP-62
Outline: as §1

LXF-289 = tested on: LXF-289
Outline: as §1

NCI-H1666 = tested on: NCI-H1666
Outline: as §1

NCI-H1755 = tested on: NCI-H1755
Outline: as §1

NCI-H1915 = tested on: NCI-H1915
Outline: as §1

NCI-H1975 = tested on: NCI-H1975
Outline: as §1

NCI-H1993 = tested on: NCI-H1993
Outline: as §1

NCI-H2023 = tested on: NCI-H2023
Outline: as §1

NCI-H2085 = tested on: NCI-H2085
Outline: as §1

NCI-H2126 = tested on: NCI-H2126
Outline: as §1

NCI-H3122 = tested on: NCI-H3122
Outline: as §1

NCI-H322M = tested on: NCI-H322M
Outline: as §1

NCI-H358 = tested on: NCI-H358
Outline: as §1

NCI-H441 = tested on: NCI-H441
Outline: as §1

NCI-H522 = tested on: NCI-H522
Outline: as §1

UMC-11 = tested on: UMC-11
Outline: as §1

Clc1ccc(Nc2nnc(Cc3ccncc3)c3ccccc23)cc1 [Vatalanib] + Cc1nc(Nc2ncc(C(=O)Nc3c(C)cccc3Cl)s2)cc(N2CCN(CCO)CC2)n1 [Dasatinib] (partner 0.075 µM)
relative viability (ABC-1; first compound 0.04 µM): 0.722 | relative viability (ABC-1; first compound 1.265 µM): 0.514 | relative viability (ABC-1; first compound 4 µM): 0.581 | relative viability (CAL-12T; first compound 0.04 µM): 0.526 | relative viability (CAL-12T; first compound 0.1265 µM): 0.351 | relative viability (CAL-12T; first compound 0.4 µM): 0.464 | relative viability (CAL-12T; first compound 1.265 µM): 0.28 | relative viability (CAL-12T; first compound 4 µM): 0.374 | relative viability (COR-L 105; first compound 0.04 µM): 0.294 | relative viability (COR-L 105; first compound 0.1265 µM): 0.32 | relative viability (COR-L 105; first compound 0.4 µM): 0.404 | relative viability (COR-L 105; first compound 1.265 µM): 0.316 | relative viability (COR-L 105; first compound 4 µM): 0.326 | relative viability (ChaGo-K-1; first compound 0.04 µM): 0.578 | relative viability (ChaGo-K-1; first compound 0.1265 µM): 0.541 | relative viability (ChaGo-K-1; first compound 0.4 µM): 0.582 | relative viability (ChaGo-K-1; first compound 1.265 µM): 0.569 | relative viability (ChaGo-K-1; first compound 4 µM): 0.586 | relative viability (EMC-BAC-2; first compound 0.04 µM): 0.329 | relative viability (EMC-BAC-2; first compound 0.1265 µM): 0.31 | relative viability (EMC-BAC-2; first compound 0.4 µM): 0.355 | relative viability (EMC-BAC-2; first compound 1.265 µM): 0.306 | relative viability (EMC-BAC-2; first compound 4 µM): 0.331 | relative viability (EPLC-272H; first compound 0.04 µM): 0.441 | relative viability (EPLC-272H; first compound 0.1265 µM): 0.347 | relative viability (EPLC-272H; first compound 0.4 µM): 0.449 | relative viability (EPLC-272H; first compound 1.265 µM): 0.36 | relative viability (EPLC-272H; first compound 4 µM): 0.481 | relative viability (HCC-15; first compound 0.04 µM): 0.611 | relative viability (HCC-15; first compound 0.1265 µM): 0.628 | relative viability (HCC-15; first compound 0.4 µM): 0.628 | relative viability (HCC-15; first compound 1.265 µM): 0.524 | relative viability (HCC-15; first compound 4 µM): 0.538 | relative viability (HCC-78; first compound 0.04 µM): 0.368 | relative viability (HCC-78; first compound 0.1265 µM): 0.325 | relative viability (HCC-78; first compound 0.4 µM): 0.333 | relative viability (HCC-78; first compound 1.265 µM): 0.368 | relative viability (HCC-78; first compound 4 µM): 0.383 | relative viability (HOP-62; first compound 0.04 µM): 0.786 | relative viability (HOP-62; first compound 0.1265 µM): 0.563 | relative viability (HOP-62; first compound 0.4 µM): 0.712 | relative viability (HOP-62; first compound 1.265 µM): 0.635 | relative viability (HOP-62; first compound 4 µM): 0.602 | relative viability (LXF-289; first compound 0.04 µM): 0.233 | relative viability (LXF-289; first compound 0.1265 µM): 0.269 | relative viability (LXF-289; first compound 0.4 µM): 0.336 | relative viability (LXF-289; first compound 1.265 µM): 0.283 | relative viability (LXF-289; first compound 4 µM): 0.204 | relative viability (NCI-H1666; first compound 0.04 µM): 0.805 | relative viability (NCI-H1666; first compound 0.1265 µM): 0.714 | relative viability (NCI-H1666; first compound 0.4 µM): 0.883 | relative viability (NCI-H1666; first compound 1.265 µM): 0.791 | relative viability (NCI-H1666; first compound 4 µM): 0.758 | relative viability (NCI-H1755; first compound 0.04 µM): 0.496 | relative viability (NCI-H1755; first compound 0.1265 µM): 0.418 | relative viability (NCI-H1755; first compound 0.4 µM): 0.514 | relative viability (NCI-H1755; first compound 1.265 µM): 0.413 | relative viability (NCI-H1755; first compound 4 µM): 0.381 | relative viability (NCI-H1915; first compound 0.04 µM): 0.322 | relative viability (NCI-H1915; first compound 0.1265 µM): 0.321 | relative viability (NCI-H1915; first compound 0.4 µM): 0.339 | relative viability (NCI-H1915; first compound 1.265 µM): 0.279 | relative viability (NCI-H1915; first compound 4 µM): 0.349 | relative viability (NCI-H1975; first compound 0.04 µM): 0.356 | relative viability (NCI-H1975; first compound 0.1265 µM): 0.344 | relative viability (NCI-H1975; first compound 0.4 µM): 0.434 | relative viability (NCI-H1975; first compound 1.265 µM): 0.282 | relative viability (NCI-H1975; first compound 4 µM): 0.287 | relative viability (NCI-H1993; first compound 0.04 µM): 0.727 | relative viability (NCI-H1993; first compound 0.1265 µM): 0.651 | relative viability (NCI-H1993; first compound 0.4 µM): 0.574 | relative viability (NCI-H1993; first compound 1.265 µM): 0.552 | relative viability (NCI-H1993; first compound 4 µM): 0.578 | relative viability (NCI-H2023; first compound 0.04 µM): 0.671 | relative viability (NCI-H2023; first compound 0.1265 µM): 0.563 | relative viability (NCI-H2023; first compound 0.4 µM): 0.653 | relative viability (NCI-H2023; first compound 1.265 µM): 0.484 | relative viability (NCI-H2023; first compound 4 µM): 0.482 | relative viability (NCI-H2085; first compound 0.04 µM): 0.218 | relative viability (NCI-H2085; first compound 0.1265 µM): 0.226 | relative viability (NCI-H2085; first compound 0.4 µM): 0.277 | relative viability (NCI-H2085; first compound 1.265 µM): 0.188 | relative viability (NCI-H2085; first compound 4 µM): 0.258 | relative viability (NCI-H2126; first compound 0.04 µM): 0.609 | relative viability (NCI-H2126; first compound 0.1265 µM): 0.571 | relative viability (NCI-H2126; first compound 0.4 µM): 0.585 | relative viability (NCI-H2126; first compound 1.265 µM): 0.42 | relative viability (NCI-H2126; first compound 4 µM): 0.503 | relative viability (NCI-H3122; first compound 0.04 µM): 0.986 | relative viability (NCI-H3122; first compound 0.1265 µM): 0.838 | relative viability (NCI-H3122; first compound 0.4 µM): 0.795 | relative viability (NCI-H3122; first compound 1.265 µM): 0.768 | relative viability (NCI-H3122; first compound 4 µM): 0.787 | relative viability (NCI-H322M; first compound 0.04 µM): 0.248 | relative viability (NCI-H322M; first compound 0.1265 µM): 0.238 | relative viability (NCI-H322M; first compound 0.4 µM): 0.256 | relative viability (NCI-H322M; first compound 1.265 µM): 0.247 | relative viability (NCI-H322M; first compound 4 µM): 0.256 | relative viability (NCI-H358; first compound 0.04 µM): 0.164 | relative viability (NCI-H358; first compound 0.1265 µM): 0.194 | relative viability (NCI-H358; first compound 0.4 µM): 0.165 | relative viability (NCI-H358; first compound 1.265 µM): 0.162 | relative viability (NCI-H358; first compound 4 µM): 0.169 | relative viability (NCI-H441; first compound 0.04 µM): 0.634 | relative viability (NCI-H441; first compound 0.1265 µM): 0.627 | relative viability (NCI-H441; first compound 0.4 µM): 0.573 | relative viability (NCI-H441; first compound 1.265 µM): 0.605 | relative viability (NCI-H441; first compound 4 µM): 0.551 | relative viability (NCI-H522; first compound 0.04 µM): 0.843 | relative viability (NCI-H522; first compound 0.1265 µM): 0.857 | relative viability (NCI-H522; first compound 0.4 µM): 0.912 | relative viability (NCI-H522; first compound 1.265 µM): 1.04 | relative viability (NCI-H522; first compound 4 µM): 0.828 | relative viability (UMC-11; first compound 0.04 µM): 0.422 | relative viability (UMC-11; first compound 0.1265 µM): 0.496 | relative viability (UMC-11; first compound 0.4 µM): 0.444 | relative viability (UMC-11; first compound 1.265 µM): 0.442 | relative viability (UMC-11; first compound 4 µM): 0.45
